Entries after “also recorded” stand apart in the source; their conditions may differ. A value given as a limit tells only on which side of the number the result lay.

One assay has as its system mTORC2. On the set-up: method as in Bhagwat et al, 2011; Falcon et al, 2011. The conditions noted are these: ref Bhagwat et al, 2011, Falcon et al; cited from earlier work.
The next assay concerns advanced solid tumours. Put plainly: Preliminary antitumour activity (RECIST). In kind it is in vivo, human. Here is the method:
Assessments by imaging techniques (CT and/or MRI) were performed every 8–12 weeks or earlier if clinically indicated. Descriptive statistics were used to summarise the safety data, including all patients who received at least one dose of OSI-027. All patients who completed the pharmacokinetic sampling were included in the PK analyses, which used descriptive statistics to summarise AUC0–∞, AUC0–t, Cmax, Clast, Tmax, Tlast, %AUC extrapolated, T1/2, clearance (Cl/F) and volume of distribution (Vz/F). Exploratory analysis were planned to correlate pharmacodynamics and pharmacokinetics. Response to treatment was evaluated according to Response Evaluation Criteria in Solid Tumors (RECIST) ([Therasse et al, 2000]).

For the next assay, the system named is tumour cell lines. Set-up: method as in Bhagwat et al, 2011; Falcon et al, 2011. The conditions noted are these: including models resistant to rapalogues, ref Bhagwat et al, 2011, Falcon et al, read-out: IC50 values in a broad panel of tumour cell lines; cited from earlier work.
Assay [1] concerns p4EBP1 in tumour biopsies. Description: Paired tumour biopsies: p4EBP1 immunohistochemistry. The format is in vivo, human. Here is the method: (§1) Drug-mediated inhibition of the mTORC1 and mTORC2 signalling was evaluated through assessing modulation of phospho-4EBP1 and phospho-PRAS40 in PBMC, as well as phospho-4EBP1 and phospho-S6 in tumour biopsies. Blood aliquots were collected prior to start dosing and at prespecified time points during the first course of treatment. Fresh tumour biopsies were obtained from selected patients during the dose escalation stage and from all patients in the expansion cohorts, at baseline and during cycle 1.
(§2) Drug-mediated inhibition of mTORC1 and mTORC2 signalling by OSI-027 was assessed by measuring inhibition of their effectors p4EBP1 (Thr37/46) and pPRAS40 (Thr246), respectively, in PBMC. In addition, paired tumour biopsies at screening and during first month of therapy were used to study target modulation.
(§3) In 21 cases, pre- and postdose paired tumour biopsies were amenable for PD studies.

Assay [2] relates to p4EBP1 (Thr37/46) in PBMC. Description: Pharmacodynamics in PBMC: p4EBP1 (Thr37/46), mTORC1 effector. The format is in vivo, human. Here is the method:
as §1, §2

The subject of another assay is tumour xenograft models. Set-up: method as in Bhagwat et al, 2011; Falcon et al, 2011. Conditions: ref Bhagwat et al, 2011, Falcon et al; cited from earlier work.
In a further assay the test system is pS6 in tumour biopsies. Put plainly: Paired tumour biopsies: pS6 immunohistochemistry. In kind it is in vivo, human. Here is the method: as §1, §2, §3
The mark [3] stands for this setting: metastatic colorectal cancer, S3–10 mg.

As for `COc1cccc2cc(-c3nc([C@H]4CC[C@H](C(=O)O)CC4)n4ncnc(N)c34)[nH]c12` [OSI-027], in the assay with mTORC2, the half-maximal inhibitory concentration (IC50) (in general, the point on the concentration scale where inhibition reaches its midpoint) is 65 nM. Besides, the “patients with stable disease at first follow-up radiological assessment” value in the assay on advanced solid tumours (8–12 weeks) stood at 29.7%. Moreover, in the assay with advanced solid tumours (all patients), the “RECIST responses (complete or partial)” value is reported as “No RECIST responses were recorded; also recorded: No complete or partial responses were observed”, the “patients free of progression for ⩾24 weeks” value is given as “six” and the “patients with stable disease >6 months” value is given as 5%. In the assay on advanced solid tumours (metastatic GIST, S1–120 mg), the “reduction in the sum of target lesions diameters, single patient” value was found to be 20% and the “time on therapy, single patient” value was determined as 45 weeks. Besides, in the assay with advanced solid tumours (setting [3]), the “reduction in the size of the lesions, single patient” value turned out to be 18% and the “time on treatment, single patient” value was 49 weeks. For the same compound, the “time free of progression, single patient” value in the assay on advanced solid tumours (metastatic uveal melanoma, S3–35 mg) was 48 weeks. Further, the IC50 with tumour cell lines is < 10000 nM. For the same compound, the “average reduction in p4EBP1 IHC staining” value in assay [1] (90 mg—S1, paired tumour biopsies) is on record as 22.3%. In assay [1] (120 mg—S1, paired tumour biopsies), the “average reduction in p4EBP1 IHC staining” value worked out at 49.5%. In assay [1] (240 mg—S2, paired tumour biopsies), the “average reduction in p4EBP1 IHC staining” value was 67.6%. Also, in assay [2] (4 h after dosing, doses over 30 mg, almost universal), the “inhibition of p4EBP1 in PBMC” value was “Over 50%”. Further, the “inhibition of p4EBP1 in PBMC” value in assay [2] (S1, 90 mg, during the 3 days on treatment) was “Over 50%”. Also, the “target inhibition (p4EBP1) in PBMC” value in assay [2] (S1, 160 mg, during the 4-days off treatment, most patients) was “Over 50%”. Moreover, in the assay with tumour xenograft models, the “anti tumour activity in tumour xenograft models” value is “anti tumour activity was documented”. Further, the “average reduction in pS6 expression (IHC)” value in the assay on pS6 in tumour biopsies (90 mg) is given as 28.6%. In the assay on pS6 in tumour biopsies (120 mg), the “average reduction in pS6 (IHC)” value came out at 75.3%.

These data come from paper PMC4984800, “A first in man, dose-finding study of the mTORC1/mTORC2 inhibitor OSI-027 in patients with advanced solid malignancies” (British Journal of Cancer, 2016).
